Residues, ends and D or L forms follow the SMILES beside them.
What was measured:
[1] = tested on: rats with alloxan diabetes; assay: Course of alloxan diabetes in rats, treatment variant (Example 2); type: in vivo, rat; conditions: for decrease of the blood glucose level: throughout the whole study
Description: The study was conducted on 21 white mongrel male rats with average body weight 375±35 g. After estimation of glucose concentration in the blood all the animals were divided at random into 2 groups. Then all the animals were exposed to single intravenous administration 1 ml of alloxan solution (“Spofa”) in dose 35 mg/kg. In 15 days control animals were administered once a day intraperitoneally with 0.3 ml 0.9% NaCl solution, rats of the main group were administered with Lys-Glu-Asp-Trp-NH2 [SEQ ID NO:1] in dose 3 μg (in 0.3 ml of 0.9% NaCl solution) per rat during 11 days.

[2] = tested on: rats with alloxan diabetes; assay: Course of alloxan diabetes in rats, prophylaxis and treatment variant (Example 3); type: in vivo, rat
Description: The experiment was carried out on 15 white mongrel male rats with the average body weight 375±35 g. The animals were divided randomly into 2 groups. Control animals were administered once a day intravenously with 0.3 ml of 0.9% NaCl solution, while the main group animals were administered with Lys-Glu-Asp-Trp-NH2 [SEQ ID NO:1] tetrapeptide in dose of 3 μg (in 0.3 ml of 0.9% NaCl solution) per rat during 7 days. After that all the animals were subject to single intravenous administration of 1 ml of alloxan solution (“Spofa”) in dose 35 mg/kg. Lys-Glu-Asp-Trp-NH2 [SEQ ID NO:1] tetrapeptide had been administered during 3 days following alloxan administration. After that […] were subject to the second Lys-Glu-Asp-Trp-NH2 [SEQ ID NO:1] tetrapeptide course from 18 day till day 28 (total 11 days) in the same dose.

[3] = tested on: rats with alloxan diabetes; assay: Tetrapeptide in different doses on the course of alloxan diabetes in rats (Example 4); type: in vivo, rat; conditions: for increase in the blood glucose level as compared to the controls: dose of 1 μg; for decrease of glucose level: dose of 10 μg
Description: The study was performed on 23 white mongrel male rats weighing on average […]. All the animals were subject to single intravenous administration of 1 ml of alloxan (“Spofa”) solution in dose of […].
Then the animals were divided at random into 3 groups. Control animals were intraperitoneally administered with 0.3 ml of 0.9% NaCl solution once a day. Rats of the second and third group were administered with tetrapeptide Lys-Glu-Asp-Trp-NH2 [SEQ ID NO:1] in dose of 1 μg (in 0.1 ml of 0.9% NaCl solution) and 10 μg (in 1.0 ml of 0.9% NaCl solution) per rat during 7 days.

[4] = tested on: rats with alloxan diabetes; assay: Insulin level in blood of alloxan diabetes rats (Example 5); type: in vivo, rat
Description: The experiment was held on 18 white mongrel rats weighing an average 375±35 g. After the estimation of the blood glucose level all the animals were divided at random into 2 groups. Then all the animals were subjected to single intravenous injection with 1 ml of alloxan solution (“Spofa”) in dose of 35 mg/kg. 15 days later control animals were daily intraperitoneally administered with 0.3 ml of 0.9% NaCl solution, rats of the main group—with tetrapeptide Lys-Glu-Asp-Trp-NH2 [SEQ ID NO:1] in dose of 3 μg (in 0.3 ml of 0.9% NaCl) per rat during 11 days.

[5] = tested on: rats with alloxan diabetes; assay: Glucose tolerance test (sugar curve) in alloxan diabetes rats (Example 6); type: in vivo, rat; conditions: for glucose concentration in blood, glucose tolerance test: in mg/dL
Description: The study was conducted on 13 male rats, enrolled in the previous tests (treatment variants—44 days after completion of tetrapeptide Lys-Glu-Asp-Trp-NH2 [SEQ ID NO:1] administration). 7 healthy rats with the same body weight constituted a separate group. All the animals were administered intravenously with 1 ml of 2% glucose solution, after that glucose concentration in their blood was estimated.

[6] = tested on: rats with alloxan diabetes; assay: Insulin effect on blood glucose level in alloxan diabetes rats after tetrapeptide course (Example 7); type: in vivo, rat
Description: The study was conducted on 13 male rats, enrolled in the previous trial (treatment variant—28 days after completion of Lys-Glu-Asp-Trp-NH2 [SEQ ID NO:1] tetrapeptide administration). 8 healthy rats of the similar body weight constituted a separate group. All the animals were administered intravenously with insulin (0.3 units) and glucose concentration in their blood was estimated hereafter.

[7] = Toxicity (experimentally proved)
[8] = 8 days since the onset of tetrapeptide administration, 3 μg per rat i.p. daily
[9] = 15 days after alloxan administration, before peptide
[10] = 30 min after glucose administration
[11] = 60 min after glucose administration
[12] = 120 min after glucose administration

## NCCCC[C@H](N)C(=O)N[C@@H](CCC(=O)O)C(=O)N[C@@H](CC(=O)O)C(=O)N[C@@H](Cc1c[nH]c2ccccc12)C(N)=O [Lys-Glu-Asp-Trp-NH2, lysyl-glutamyl-aspartyl-tryptophane amid] (H-KEDW-NH2)
[1]; 1 day upon completion of peptide administration (3 μg per rat, 11 days)
  Glucose Concentration in the blood: 222.5 ± 10.3 mg %
[1]; [8]
  Glucose Concentration in the blood: 254.5 ± 16.2 mg %
[1]; 9 days upon completion of peptide administration
  Glucose Concentration in the blood: 183.9 ± 10.5 mg %
[1]; [9]
  Glucose Concentration in the blood: 333.6 ± 12.4 mg %
[1]; 18 days upon completion of peptide administration
  Glucose Concentration in the blood: 236.7 ± 10.3 mg %
[1]; 28 days upon completion of peptide administration
  Glucose Concentration in the blood: 221.5 ± 11.2 mg %
[1]; 44 days upon completion of peptide administration
  Glucose Concentration in the blood: 210.8 ± 9.3 mg %
[1]; 58 days upon completion of peptide administration
  Glucose Concentration in the blood: 198.9 mg %
[1]; by the end of the investigation, 84 days after alloxan (control 70%)
  lethality: 36.4%
[1]; initial level, before alloxan and before peptide
  Glucose Concentration in the blood: 81.1 ± 3.8 mg %
[1]; overall figure
  decrease of the blood glucose level: 38.4%
[1]; range in brackets
  decrease of the blood glucose level: 30-47.7%
[1]; versus control group
  lethality decrease: two-fold
[2]; 40th day after alloxan administration (control 57.1%)
  survived animals: 75%
[2]; 5 days after alloxan administration
  Glucose Concentration in blood: 247.3 ± 17.2 mg %
[2]; 7 days from the onset of tetrapeptide administration (1 course, 3 μg per rat), healthy rats before alloxan
  Glucose Concentration in blood: 94.0 ± 0.8 mg %
[2]; 14 days after alloxan administration
  Glucose Concentration in blood: 261.5 ± 39.5 mg %
[2]; 18 days after alloxan administration (start of 2nd course)
  Glucose Concentration in blood: 159.0 ± 32.6 mg %
[2]; 28 days after alloxan administration (end of 2nd course)
  Glucose Concentration in blood: 77.3 ± 1.3 mg %
[2]; 33 days after alloxan administration
  Glucose Concentration in blood: 90.7 ± 5.2 mg %
[2]; 40 days after alloxan administration
  Glucose Concentration in blood: 107.7 ± 6.4 mg %
[2]; administration to healthy animals
  effect on blood glucose level: did not lead to the decrease of blood glucose level
[2]; after one course
  decrease of blood glucose level as compared to the controls: 22-30%
[2]; after the second course, 28th, 33rd, 40th day
  blood glucose level: complete normalisation of the blood glucose level
[2]; control: 5 rats out of 7
  rats with severe form of diabetes mellitus: 2 rats out of 8
[2]; initial level, before peptide
  Glucose Concentration in blood: 76.8 ± 1.1 mg %
[3]; 1 mkg group, 7 days after alloxan administration
  Glucose Concentration in blood: 245.6 ± 12.3 mg %
[3]; 1 mkg group, 14 days after alloxan administration
  Glucose Concentration in blood: 261.7 ± 12.3 mg %
[3]; 1 mkg group, initial level
  Glucose Concentration in blood: 80.6 ± 2.8 mg %
[3]; 1 mkg per rat, 7 days, 1 day after tetrapeptide administration
  Glucose Concentration in blood: 228.3 ± 10.7 mg %
[3]; 1 mkg per rat, 4 days after tetrapeptide administration
  Glucose Concentration in blood: 244.4 ± 12.2 mg %
[3]; 1 mkg per rat, 7 days after tetrapeptide administration
  Glucose Concentration in blood: 269.4 ± 8.6 mg %
[3]; 1 mkg per rat, 14 days after tetrapeptide administration
  Glucose Concentration in blood: 268.8 ± 12.4 mg %
[3]; 1 mkg per rat, 21 days after tetrapeptide administration
  Glucose Concentration in blood: 272.5 ± 9.9 mg %
[3]; 10 mkg group, 7 days after alloxan administration
  Glucose Concentration in blood: 247.2 ± 14.0 mg %
[3]; 10 mkg group, 14 days after alloxan administration
  Glucose Concentration in blood: 252.2 ± 7.9 mg %
[3]; 10 mkg group, initial level
  Glucose Concentration in blood: 83.9 ± 3.4 mg %
[3]; 10 mkg per rat, 7 days, 1 day after tetrapeptide administration
  Glucose Concentration in blood: 193.3 ± 6.7 mg %
[3]; 10 mkg per rat, 4 days after tetrapeptide administration
  Glucose Concentration in blood: 212.2 ± 7.3 mg %
[3]; 10 mkg per rat, 7 days after tetrapeptide administration
  Glucose Concentration in blood: 205.6 ± 8.4 mg %
[3]; 10 mkg per rat, 14 days after tetrapeptide administration
  Glucose Concentration in blood: 240.0 ± 7.9 mg %
[3]; 10 mkg per rat, 21 days after tetrapeptide administration
  Glucose Concentration in blood: 248.3 ± 13.5 mg %
[3]; 1st day after completion of the course
  increase in the blood glucose level as compared to the controls: 17.3%
[3]; 4th day after completion of the course
  increase in the blood glucose level as compared to the controls: 12.3%
[3]; day 1
  decrease of glucose level: 30%
[3]; day 4
  decrease of glucose level: 23.8%
[3]; day 7
  decrease of glucose level: 26%
[3]; day 17
  decrease of glucose level: 12.7%
[4]; 70th day after alloxan administration (control 62.5%)
  animals alive: 70%
[4]; 1 day after the completion of tetrapeptide administration
  Insulin content in blood: 3.6 ± 0.7 mkIU/ml
[4]; 8 days of substance administration
  insulin content in the blood, higher than in the control group: 3.9 fold
[4]; [8]
  Insulin content in blood: 3.1 ± 1.1 mkIU/ml
[4]; 9 days after the completion of tetrapeptide administration
  Insulin content in blood: 3.2 ± 0.5 mkIU/ml
[4]; [9]
  Insulin content in blood: 1.5 ± 0.4 mkIU/ml
[4]; 18 days after the completion of tetrapeptide administration
  Insulin content in blood: 4.3 ± 0.5 mkIU/ml
[4]; 28 days after the completion of tetrapeptide administration
  Insulin content in blood: 4.1 ± 0.6 mkIU/ml
[4]; 44 days after the completion of tetrapeptide administration
  Insulin content in blood: 3.9 ± 1.1 mkIU/ml
[4]; all the following estimations, no insulin in control animals
  amount of insulin in the blood: 13-18%
[4]; initial level
  Insulin content in blood: 23.8 ± 2.8 mkIU/ml
[5]; 5 min after glucose administration
  glucose concentration compared to the initial level (100%): 142.9%
[5]; 5 min after glucose administration (1 ml of 2% i.v.)
  glucose concentration in blood, glucose tolerance test: 301.2 ± 10.5
[5]; [10]
  glucose concentration compared to the initial level (100%): 97.3%
  glucose concentration in blood, glucose tolerance test: 205.1 ± 11.8
[5]; [11]
  glucose concentration compared to the initial level (100%): 95.6%
  glucose concentration in blood, glucose tolerance test: 201.5 ± 13.2
[5]; [12]
  glucose concentration compared to the initial level (100%): 77.9%
  glucose concentration in blood, glucose tolerance test: 164.2 ± 12.8
[5]; initial level, 44 days after course completion
  glucose concentration in blood, glucose tolerance test: 210.8 ± 9.3
[6]; 30 minutes after insulin administration
  Decrease in glucose content with respect to initial level: 44.2%
[6]; 30 minutes after insulin administration (0.3 units i.v.)
  Glucose Concentration in blood: 123.6 ± 8.3 mg %
[6]; initial level, 28 days after course completion
  Glucose Concentration in blood: 221.5 ± 11.2 mg %
[6]; rat, in vivo
  decrease of the glucose level after insulin administration as compared to the control group: two-fold
[7]
  toxicity: non-toxic

— patent US7491703B2, “Tetrapeptide regulating blood glucose level in diabetes mellitus” (“Access Bioscience” CJSC, priority 2003, dated 2009)
